Laboratory results taken from ChEMBL document CHEMBL1201862, “PubChem BioAssay data set” (2004).
The source made the active and inactive calls.

Experiments:
HeLa = assay: Cytotoxicity counterscreen assay for transcriptional activators of heat shock protein 70 (Hsp70). [Related pubchem assays: 1203, 1252 ]; type: functional; details: Homo sapiens
[1] = target: T1, Rac GTPase-activating protein 1 (Homo sapiens, UniProt Q9H0H5); assay: blockers of MgcRacGAP-driven Rac1 GTP hydrolysis – biochemical, ADP Hunter fluorescence, primary and confirmatory, confirmation (AID 624330); type: functional
T1 sequence (Q9H0H5 whole entry): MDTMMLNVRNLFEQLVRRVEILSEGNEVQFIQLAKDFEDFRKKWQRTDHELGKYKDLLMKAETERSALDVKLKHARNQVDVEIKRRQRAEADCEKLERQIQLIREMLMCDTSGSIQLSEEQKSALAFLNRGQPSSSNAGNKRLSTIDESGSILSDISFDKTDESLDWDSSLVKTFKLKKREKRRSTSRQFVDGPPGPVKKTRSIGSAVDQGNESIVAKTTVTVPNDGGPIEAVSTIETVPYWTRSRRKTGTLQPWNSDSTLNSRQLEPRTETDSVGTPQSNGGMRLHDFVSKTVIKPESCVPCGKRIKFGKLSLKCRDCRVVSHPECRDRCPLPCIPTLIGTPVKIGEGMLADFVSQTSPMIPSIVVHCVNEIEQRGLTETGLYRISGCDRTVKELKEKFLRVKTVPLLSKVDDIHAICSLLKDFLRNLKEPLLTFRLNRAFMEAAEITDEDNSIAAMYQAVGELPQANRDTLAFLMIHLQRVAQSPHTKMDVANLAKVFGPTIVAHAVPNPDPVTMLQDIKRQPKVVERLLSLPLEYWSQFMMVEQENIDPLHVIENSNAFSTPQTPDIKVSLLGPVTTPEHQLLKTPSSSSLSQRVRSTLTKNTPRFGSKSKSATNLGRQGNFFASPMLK

[2] = target: T2, Neuropeptide Y receptor type 1 (Homo sapiens, UniProt P25929); assay: IC50 of human NPY-Y1 blockers – cell-based, dose response (AID 1277); type: functional
T2 sequence (P25929 whole entry): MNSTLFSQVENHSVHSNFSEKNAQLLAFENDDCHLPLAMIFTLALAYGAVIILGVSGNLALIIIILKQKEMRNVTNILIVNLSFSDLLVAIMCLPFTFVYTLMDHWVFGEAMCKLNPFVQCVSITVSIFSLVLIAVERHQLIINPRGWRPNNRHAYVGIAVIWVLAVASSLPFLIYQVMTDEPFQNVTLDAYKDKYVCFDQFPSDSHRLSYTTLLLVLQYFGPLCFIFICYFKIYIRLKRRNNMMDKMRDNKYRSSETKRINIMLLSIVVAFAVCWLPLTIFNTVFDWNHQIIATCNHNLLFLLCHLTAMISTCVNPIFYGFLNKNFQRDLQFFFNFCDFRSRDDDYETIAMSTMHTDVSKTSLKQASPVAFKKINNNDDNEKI

[3] = target: T3, Neuropeptide Y receptor type 2 (Homo sapiens, UniProt P49146); assay: IC50 for human NPY-Y2 blockade – cell-based, counter-screen for NPY-Y1 antagonist project, dose response (AID 1278); type: functional
T3 sequence (P49146 whole entry): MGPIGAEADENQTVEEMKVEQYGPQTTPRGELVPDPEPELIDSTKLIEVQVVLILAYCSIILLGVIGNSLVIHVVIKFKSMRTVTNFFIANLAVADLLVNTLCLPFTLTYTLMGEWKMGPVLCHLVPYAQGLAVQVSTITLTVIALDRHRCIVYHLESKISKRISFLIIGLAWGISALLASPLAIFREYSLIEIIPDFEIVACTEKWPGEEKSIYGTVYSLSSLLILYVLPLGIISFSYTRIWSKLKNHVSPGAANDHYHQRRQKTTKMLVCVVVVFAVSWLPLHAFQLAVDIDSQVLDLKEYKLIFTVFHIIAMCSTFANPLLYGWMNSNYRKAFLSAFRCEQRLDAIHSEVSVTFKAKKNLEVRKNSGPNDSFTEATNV

INS1 = assay: INS-1E survival protection against cytokine death – cell-based, luminescence, retest, dose response (AID 449756); type: functional; details: Rattus norvegicus;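 further: cell death triggered by IL-1 beta plus TNF-alpha plus IFN-gamma mixture; protective hits raise ATP signal compared with cytokine alone wells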
[4] = NIH-3T3 fibroblast cytotoxicity, dose response, cytotoxicity control, cell-based, fluorescence, Alamar Blue, secondary assay (AID 2327); type: functional;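 further: NIH-3T3 mouse fibroblasts cultured with fluconazole at 8 µg/mL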
[5] = mitochondrial function rescue without frataxin homolog – Friedreich's ataxia, plus single-dose screen, dose response (AID 1465); type: functional;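 further: yeast depleted of Yfh1p frataxin homolog grown on glycerol needing respiration; WST-1 tetrazolium dye reduction as measure of cellular dehydrogenase metabolic activity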
Nonstructural protein 1 = Nonstructural protein 1 (Influenza A virus, UniProt Q194T2); type: functional, Influenza A virus (A/California/07/2009(H1N1))
Nonstructural protein 1, sequence (Q194T2 whole entry): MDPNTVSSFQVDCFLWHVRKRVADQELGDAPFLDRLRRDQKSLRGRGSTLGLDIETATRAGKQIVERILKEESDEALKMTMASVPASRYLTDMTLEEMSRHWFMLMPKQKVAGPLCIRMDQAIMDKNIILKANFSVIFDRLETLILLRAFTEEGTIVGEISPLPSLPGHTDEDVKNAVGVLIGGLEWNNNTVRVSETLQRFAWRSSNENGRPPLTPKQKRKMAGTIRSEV

[6] = fluconazole-exposed Candida albicans growth modulators – fluorescence, retest, confirmation (AID 2467); type: functional, cell-based
[7] = target: T4, Calpain-2 catalytic subunit (Sus scrofa, UniProt P43367); assay: m-calpain protease blockers, concentration series – biochemical, fluorogenic peptide substrate, dose response (AID 1420); type: functional
T4 sequence (P43367 whole entry): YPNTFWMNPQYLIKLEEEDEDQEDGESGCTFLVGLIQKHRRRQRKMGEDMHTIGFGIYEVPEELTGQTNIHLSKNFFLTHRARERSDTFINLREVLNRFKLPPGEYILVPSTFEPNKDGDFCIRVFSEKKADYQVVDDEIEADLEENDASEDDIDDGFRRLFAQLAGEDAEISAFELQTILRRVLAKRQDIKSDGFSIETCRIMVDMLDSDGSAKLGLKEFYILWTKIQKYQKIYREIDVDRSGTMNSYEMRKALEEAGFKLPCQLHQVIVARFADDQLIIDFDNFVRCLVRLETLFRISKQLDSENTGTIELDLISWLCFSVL

Mucolipin-3 = Mucolipin-3 (Homo sapiens, UniProt Q8TDD5); assay: Dose response cell-based high-throughput screening assay for agonists of the transient receptor potential channel ML3 (TRPML3). [Related pubchem assays: 1526, 1424, 1448 ]; type: functional
Mucolipin-3, sequence (Q8TDD5 whole entry): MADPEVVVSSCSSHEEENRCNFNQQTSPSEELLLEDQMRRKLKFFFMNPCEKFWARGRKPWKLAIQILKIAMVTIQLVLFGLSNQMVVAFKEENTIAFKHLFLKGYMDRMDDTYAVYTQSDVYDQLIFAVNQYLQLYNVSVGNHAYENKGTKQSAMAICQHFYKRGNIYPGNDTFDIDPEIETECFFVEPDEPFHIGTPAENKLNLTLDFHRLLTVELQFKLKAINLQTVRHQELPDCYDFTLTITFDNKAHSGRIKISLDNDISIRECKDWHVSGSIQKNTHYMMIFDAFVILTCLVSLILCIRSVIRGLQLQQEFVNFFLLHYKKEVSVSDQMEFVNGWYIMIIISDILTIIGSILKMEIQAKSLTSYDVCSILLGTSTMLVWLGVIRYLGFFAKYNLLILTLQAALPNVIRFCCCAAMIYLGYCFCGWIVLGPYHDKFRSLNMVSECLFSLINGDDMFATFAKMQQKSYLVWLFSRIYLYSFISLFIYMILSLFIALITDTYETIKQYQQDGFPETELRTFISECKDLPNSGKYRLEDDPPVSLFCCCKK

Ion channel NompC [8] = target: T5, Ion channel NompC (Danio rerio, UniProt Q7T1G6); assay: Fluorescence counterscreen assay for TRPML3 agonists: dose response cell-based high-throughput screening assay to identify agonists of the transient receptor potential channel N1 (TRPN1). [Related pubchem assays: 1526, 1424, 1448 ]; type: functional
T5 sequence (Q7T1G6 whole entry): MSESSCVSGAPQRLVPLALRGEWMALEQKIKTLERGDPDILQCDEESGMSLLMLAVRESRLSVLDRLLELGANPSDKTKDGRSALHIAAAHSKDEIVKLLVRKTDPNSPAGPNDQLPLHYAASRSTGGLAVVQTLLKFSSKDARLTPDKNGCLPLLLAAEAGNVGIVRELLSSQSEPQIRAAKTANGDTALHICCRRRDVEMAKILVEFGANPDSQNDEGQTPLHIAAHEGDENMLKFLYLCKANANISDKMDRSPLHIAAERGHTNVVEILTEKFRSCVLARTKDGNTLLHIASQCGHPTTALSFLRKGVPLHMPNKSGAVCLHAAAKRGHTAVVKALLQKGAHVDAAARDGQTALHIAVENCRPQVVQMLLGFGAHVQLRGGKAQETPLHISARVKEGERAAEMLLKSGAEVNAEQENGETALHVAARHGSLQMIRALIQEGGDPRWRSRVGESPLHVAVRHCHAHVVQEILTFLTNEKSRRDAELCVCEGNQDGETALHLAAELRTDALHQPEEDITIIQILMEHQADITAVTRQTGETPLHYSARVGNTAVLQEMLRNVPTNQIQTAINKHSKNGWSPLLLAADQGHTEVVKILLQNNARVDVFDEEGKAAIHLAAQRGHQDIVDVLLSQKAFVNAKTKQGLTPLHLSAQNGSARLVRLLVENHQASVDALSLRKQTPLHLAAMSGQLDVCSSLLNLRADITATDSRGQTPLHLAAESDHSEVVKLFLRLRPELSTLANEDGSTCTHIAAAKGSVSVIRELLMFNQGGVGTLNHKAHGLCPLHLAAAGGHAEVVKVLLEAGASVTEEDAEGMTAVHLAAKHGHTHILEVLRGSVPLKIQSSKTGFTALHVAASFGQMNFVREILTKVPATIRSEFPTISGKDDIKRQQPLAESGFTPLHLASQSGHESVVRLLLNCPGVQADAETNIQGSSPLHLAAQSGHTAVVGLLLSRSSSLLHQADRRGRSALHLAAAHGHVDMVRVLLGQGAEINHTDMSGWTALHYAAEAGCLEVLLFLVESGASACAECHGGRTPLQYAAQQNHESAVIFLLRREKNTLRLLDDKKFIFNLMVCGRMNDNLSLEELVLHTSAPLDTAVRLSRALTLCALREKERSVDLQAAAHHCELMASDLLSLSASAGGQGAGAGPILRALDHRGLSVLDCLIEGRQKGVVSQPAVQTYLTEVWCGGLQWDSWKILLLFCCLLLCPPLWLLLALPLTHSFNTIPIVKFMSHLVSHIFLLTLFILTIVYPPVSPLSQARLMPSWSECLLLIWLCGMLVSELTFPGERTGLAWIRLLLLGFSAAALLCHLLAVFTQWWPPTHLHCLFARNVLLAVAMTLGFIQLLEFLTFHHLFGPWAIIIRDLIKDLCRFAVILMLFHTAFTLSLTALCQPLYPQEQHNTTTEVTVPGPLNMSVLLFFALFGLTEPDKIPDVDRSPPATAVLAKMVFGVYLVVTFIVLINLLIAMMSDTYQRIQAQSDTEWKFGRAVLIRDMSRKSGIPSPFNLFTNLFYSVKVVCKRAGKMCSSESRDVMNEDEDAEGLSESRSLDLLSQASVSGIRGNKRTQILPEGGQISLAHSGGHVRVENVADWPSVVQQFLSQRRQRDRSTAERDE

Ion channel NompC [9] = target: T5, Ion channel NompC; assay: Late stage counterscreen for the probe development effort to identify selective agonists of the Transient Receptor Potential Channels 3 (TRPML3): fluorescence-based cell-based dose response assay for TRPN1 agonists.; type: functional
[10] = A Cell Based Secondary Assay To Explore Cytotoxicity of Compounds that Sensitize Mycobacterium Tuberculosis to Beta-Lactam Antibiotics.; type: functional
Protein RecA = target: T6, Protein RecA (Mycobacterium tuberculosis, UniProt P9WHJ3); assay: Fluorescence Cell-Free Homogeneous Dose Retest to Identify Inhibitors of RecA-Intein Splicing Activity. [Related pubchem assays (depositor defined):AID2097, AID2223, AID489010, AID492950]; type: functional
T6 sequence (P9WHJ3 whole entry): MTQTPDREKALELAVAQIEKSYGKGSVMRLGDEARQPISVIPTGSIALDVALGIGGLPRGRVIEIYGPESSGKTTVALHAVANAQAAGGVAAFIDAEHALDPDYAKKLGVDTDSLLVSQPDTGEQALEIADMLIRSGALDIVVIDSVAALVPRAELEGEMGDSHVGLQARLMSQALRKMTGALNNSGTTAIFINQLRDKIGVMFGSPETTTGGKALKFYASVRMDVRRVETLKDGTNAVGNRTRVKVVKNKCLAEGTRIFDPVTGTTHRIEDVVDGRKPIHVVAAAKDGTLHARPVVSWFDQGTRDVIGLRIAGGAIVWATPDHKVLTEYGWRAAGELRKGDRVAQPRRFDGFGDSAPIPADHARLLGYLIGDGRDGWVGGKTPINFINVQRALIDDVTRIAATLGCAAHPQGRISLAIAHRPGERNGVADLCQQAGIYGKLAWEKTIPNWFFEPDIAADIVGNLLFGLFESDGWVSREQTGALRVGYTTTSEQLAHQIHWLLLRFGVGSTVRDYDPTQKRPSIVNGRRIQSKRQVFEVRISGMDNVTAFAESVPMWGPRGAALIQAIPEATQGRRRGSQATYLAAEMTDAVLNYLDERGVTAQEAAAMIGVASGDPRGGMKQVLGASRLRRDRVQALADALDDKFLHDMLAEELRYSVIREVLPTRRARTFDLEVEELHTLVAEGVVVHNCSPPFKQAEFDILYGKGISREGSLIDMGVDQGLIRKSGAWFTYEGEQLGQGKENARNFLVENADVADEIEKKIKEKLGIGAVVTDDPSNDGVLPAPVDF

[11] = Luminescence Cell-Based Dose Retest to Confirm Inhibitors of Cancer Stem Cells. [Related pubchem assays (depositor defined):AID2717, AID2721]; type: functional; details: Homo sapiens
[12] = CCR5-tropic HIV-1 fusion blockers – cell-based, CCR5-tropic Env, dose response (AID 2279); type: functional
[13] = target: T7, Replicative DNA helicase DnaB (Mycobacterium tuberculosis, UniProt P9WMR3); assay: DnaB intein splicing inhibitors, dose response, biochemical, cell-free fluorescence (AID 449749); type: functional
T7 sequence (P9WMR3 whole entry): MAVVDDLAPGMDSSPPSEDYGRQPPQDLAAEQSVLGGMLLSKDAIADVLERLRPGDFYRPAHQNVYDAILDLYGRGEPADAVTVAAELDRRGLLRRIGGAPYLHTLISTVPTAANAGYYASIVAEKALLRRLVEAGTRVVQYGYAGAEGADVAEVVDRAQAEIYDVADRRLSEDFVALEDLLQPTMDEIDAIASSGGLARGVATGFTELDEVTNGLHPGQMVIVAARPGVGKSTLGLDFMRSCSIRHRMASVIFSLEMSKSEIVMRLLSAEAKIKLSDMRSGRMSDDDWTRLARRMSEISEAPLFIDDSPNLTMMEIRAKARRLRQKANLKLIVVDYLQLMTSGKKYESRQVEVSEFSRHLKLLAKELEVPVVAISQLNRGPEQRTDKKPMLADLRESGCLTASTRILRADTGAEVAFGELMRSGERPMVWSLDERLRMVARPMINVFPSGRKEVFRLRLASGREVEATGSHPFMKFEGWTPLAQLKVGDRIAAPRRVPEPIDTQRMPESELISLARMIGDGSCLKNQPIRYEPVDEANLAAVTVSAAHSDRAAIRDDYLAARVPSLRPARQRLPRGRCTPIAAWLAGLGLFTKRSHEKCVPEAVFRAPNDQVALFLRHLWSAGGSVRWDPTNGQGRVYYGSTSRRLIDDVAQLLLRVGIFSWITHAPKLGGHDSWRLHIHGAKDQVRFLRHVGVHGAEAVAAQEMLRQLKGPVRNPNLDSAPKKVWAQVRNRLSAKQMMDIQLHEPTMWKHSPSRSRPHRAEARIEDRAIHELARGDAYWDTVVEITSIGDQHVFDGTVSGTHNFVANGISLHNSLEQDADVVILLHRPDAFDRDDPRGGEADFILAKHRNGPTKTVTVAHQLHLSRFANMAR

[14] = Trypanosoma cruzi growth suppression in host cells – NIH3T3 host cells, beta-gal luminescence, confirmation (AID 2044); type: functional, cell-based;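 further: intracellular parasites grown in NIH/3T3 mouse fibroblasts as host cells; luminescent beta-galactosidase reporter signal from transgenic T. cruzi replicating inside host cells; inhibitors lower the luminescence signal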
[15] = NIH3T3 cell viability loss – ATP luminescence, mouse fibroblasts, counter-screen, dose response (AID 2010); type: functional, cell-based;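 further: cells exposed to compound for about 90 hours before reading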
[16] = target: T3, Neuropeptide Y receptor type 2; type: functional, cell-based
[17] = target: T2, Neuropeptide Y receptor type 1; type: functional
NS3 = NS3 (Hepatitis C virus, UniProt A3EZJ3); assay: PubChem AID 2173; parameters: species or system Hepacivirus hominis
NS3, sequence (A3EZJ3 whole entry, the tested form may be a part): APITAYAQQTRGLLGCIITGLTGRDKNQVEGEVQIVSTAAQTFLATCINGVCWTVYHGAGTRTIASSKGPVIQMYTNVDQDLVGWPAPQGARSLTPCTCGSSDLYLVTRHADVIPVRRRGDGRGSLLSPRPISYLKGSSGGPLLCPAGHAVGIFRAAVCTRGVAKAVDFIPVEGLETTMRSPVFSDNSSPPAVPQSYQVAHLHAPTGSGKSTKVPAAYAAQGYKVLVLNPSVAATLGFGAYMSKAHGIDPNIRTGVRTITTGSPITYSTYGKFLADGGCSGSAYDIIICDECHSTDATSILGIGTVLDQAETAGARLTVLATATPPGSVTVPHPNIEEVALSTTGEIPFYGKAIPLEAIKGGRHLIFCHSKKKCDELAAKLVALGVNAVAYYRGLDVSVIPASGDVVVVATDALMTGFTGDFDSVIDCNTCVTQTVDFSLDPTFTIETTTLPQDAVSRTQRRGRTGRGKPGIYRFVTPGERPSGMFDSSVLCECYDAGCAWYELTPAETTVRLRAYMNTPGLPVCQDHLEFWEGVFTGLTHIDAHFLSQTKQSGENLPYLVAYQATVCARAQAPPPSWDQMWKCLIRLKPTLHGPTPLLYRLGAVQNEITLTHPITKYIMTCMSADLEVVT

[18] = target: T8, Carboxy-terminal domain RNA polymerase II polypeptide A small phosphatase 1 (Homo sapiens, UniProt Q9GZU7); assay: CTDSP1 inhibitors, concentration-response, biochemical, absorbance readout, ultra-high-throughput screen actives (AID 540297); type: functional
T8 sequence (Q9GZU7 whole entry): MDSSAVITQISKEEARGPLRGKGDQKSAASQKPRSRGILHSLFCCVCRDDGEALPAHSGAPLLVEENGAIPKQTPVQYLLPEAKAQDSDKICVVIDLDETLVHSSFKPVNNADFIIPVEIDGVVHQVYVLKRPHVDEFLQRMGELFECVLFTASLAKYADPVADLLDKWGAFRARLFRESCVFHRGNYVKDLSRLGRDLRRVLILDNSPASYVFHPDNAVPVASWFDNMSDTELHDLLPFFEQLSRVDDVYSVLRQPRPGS

[19] = Luminescence-based counterscreen assay for KLF5 inhibitors: dose response cell-based high throughput screening assay to identify cytotoxic compounds using the IEC-6 intestinal epithelial cell line. [Related pubchem assays: 1700 (Primary screen.), 1834 (Confirmation screen.), 1858 (Summary AID.), 1905 (Counterscreen.)]; type: functional

## O=C(CCCn1c(=O)c2sccc2n(Cc2cc(=O)n3ccccc3n2)c1=O)NCc1ccco1
cells
  IC50: 36.6 µM (active)

## Cc1ccc(N=C(S)NC(NC(=O)c2ccccc2)C(Cl)(Cl)Cl)c(C)c1 (configuration not stated)
HeLa
  CC50: 47 µM (not active)

## COc1ccc(Oc2c[nH]nc2-c2ccc(O)cc2O)cc1
[1]
  IC50: 28.3 µM (active)
[2]
  IC50: > 35 µM (not active)
[3]
  IC50: > 35 µM (not active)

## Cc1ccc2cc(C3C(C#N)=C(N)Oc4c3ccc3cccnc43)c(O)nc2c1 (configuration not stated)
INS1
  AC50: 1.02 µM (active)
[4]
  EC50: > 150 µM (inactive)
[5]
  EC50: > 100 µM (active)
Nonstructural protein 1
  IC50: 14.3 µM (active)
[6]
  EC50: > 38 µM (not active)

## CCOc1ccc(S(=O)(=O)N2CCCCC2)c(C)c1C
[7]
  IC50: 32.6 µM (not active)
Mucolipin-3
  EC50: 1.43 µM (active)
Ion channel NompC [8]
  EC50: > 29.9 µM (not active)
Ion channel NompC [9]
  EC50: > 29.9 µM (not active)

## Cc1nn(CCc2nn[nH]n2)c2nc(-c3ccc(C4CCCCC4)cc3)cc(C(F)(F)F)c12
[10]
  CC50: 34.4 µM (active)
Protein RecA
  EC50: 38.1 µM (active)
[11]
  AC50: 2.14 µM (active)
[12]
  IC50: 21.7 µM (active)
[13]
  AC50: 3.83 µM (active)

## CN1CCN(c2ccccc2NC(=O)c2ccc(-c3ccc(Cl)cc3Cl)o2)CC1
[14]
  EC50: 1.06 µM (active)
[15]
  EC50: > 60 µM (not active)
[16]
  IC50: > 12 µM (not active)
[17]
  IC50: 4.46 µM (active)
[11]
  AC50: 3.09 µM (active)

## Cc1ccc(C(=O)O)cc1-c1ccc(/C=C2\SC(=O)N(CC(=O)Nc3ccccc3)C2=O)o1
NS3
  IC50: 5.39 µM (active)
[18]
  IC50: 2.75 µM (active)

## COc1ccc(/C=N/NC(=O)CCn2c3ccccc3c3ccccc32)cc1O
[19]
  IC50: 2.02 µM (active)
